Data as given in patent US7081247B2, “Composition and method for inhibiting polar capsule discharge and protecting a subject from nematocyst sting” (priority 2002, dated 2006).

Experiments:
[1] = tested on: Aiptasia Mutabilis acontial filament nematocysts; details: 2 mM in seawater medium; cited from earlier work
[2] = tested on: isolated nematocyst capsules; details: 50 mM CaCl2; cited from earlier work
[3] = tested on: nematocyte batteries in the oral arms of Pelagia nociluca; details: applied through a gelatin probe; cited from earlier work
[4] = Water resistance of ointment on virgin wool squares in seawater (atomic absorption); format: physicochemical; details: 80 RPM
Protocol: To determine the water resistance of an ointment containing 50 mM LaCl3, prepared according the above-described conditions, three squares (10×10 CM) of virgin wool, keratin protein that is used as a substrate to approximate human skin, were used. Each square of wool was treated with 1-gram of ointment containing 50 mM LaCl3. After 20 minutes of drying at room temperature, the squares of wool were immersed in one liter of seawater and agitated (80 RPM) for 30 minutes, 60 minutes, or 120 minutes. The ointment was extracted separately from each square of wool with 50 ml 1% Tritox100 under boiling. The Lanthanum chloride concentration of each sample of extracted ointment was monitored with the use of atomic absorption.

[5] = tested on: jellyfish Rhopilema nomadica nematocysts; assay: Inhibition of nematocyst discharge into human skin samples (immunohistochemical analysis); format: cell-based; details: human skin sections, 10 seconds contact with jellyfish tentacles
Protocol: Normal human skin was obtained from neonatal elective circumcision. The skin was immediately placed into sterile phosphate buffered saline (PBS) containing antibiotic/antimycotic. The tissue was frozen and embedded in Tissue-TekTM. It was then sectioned into 50 μm sections using a cryostat. The sections were attached to superfrost/plus microscope slide (Fisherbrand) and maintained at […] until time of use. All sections were examined to ensure that they were perpendicular to the plane of the epidermis, exposing cross-sections of epidiermis, dermis and sub-cutaneos tissue.
For immunoassay tests to detect cnidaria stinging level of human skin, a polyclonal antibody specific for nematocyst toxin was prepared, as described in Lotan et al (1996).
Briefly, the HPLC fraction containing the toxin phospholipase A2 from the jellyfish Rhopilema nomadica was isolated and injected into rabbits as described in Vaitukaitis, pp. 46–52, “Immunochemical Techniques, Part B,” in Methods in enzymology, vol. 73, ed. Larson & Vunkis (academic Press, New York, 1981). Serum was collected from the rabbits after two injections, and the presence of antibody against the jellyfish toxin was examined on immunoblots.
The slides prepared and frozen as described above were thawed at room temperature. The slides were submersed in sea water and then attached to jellyfish or sea anemone tentacles for 10 seconds. The tentacles were detached, the slide washed with PBS, and blocked using 5% Fetal Bovine Serum, and 0.1% Triton X100 in PBS (blocking solution). All washing incubation steps were conducted on a tilting shaker at room temperature. The slides were incubated at 10 ml of block solution containing a 1:2, 500 dilution of the anti-toxin antibody for one hour. After incubation, the slide were washed five times for five minutes each wash with 100 mL of 0.1% TritonX100 in PBS (Wash solution). […]
Twelve sections of human skin samples were tested in each experiment. […] The number of nematocysts that penetrated the skin was determined using immunohistochemical analysis.

For `[Cl-].[Cl-].[Co+2]` [CoCl2, reference compound], the “effect on nematocyst discharge” value [1] is given as “inactivates nematocyst discharge”.

For `[Ca+2].[Cl-].[Cl-]` [CaCl2], the “discharge of isolated nematocyst capsules” value [2] is given as “do not discharge”.

In the case of `[Gd+3]` [Gd^+3], the “effect on discharge of nematocyte batteries” value [3] is given as “prevents discharge”.

With `[Cl][La]([Cl])[Cl]` [LaCl3, Lanthanum Chloride] the “LaCl3 retained in the ointment” value ([4]; ointment containing 50 mM LaCl3, 30 minutes water submersion) was 90%, the “Lanthanum remaining in the ointment” value ([4]; ointment containing 50 mM LaCl3, 60 minutes water submersion) was 77% and the “LaCl3 left in the ointment” value ([4]; ointment containing 50 mM LaCl3, 120 minutes water submersion) was 70%. For the same compound, the “inhibition of nematocyst penetration” value ([5]; 2 mM LaCl3 in ointment) was 44%, the “reduction in the sting” value ([5]; 5 mM LaCl3 in ointment) was 76% and the “reduction of the sting” value ([5]; 50 mM LaCl3 in lotion) was 92%. The “effect on nematocyst discharge” value [1] was “inactivates nematocyst discharge”.
